Patent US20040092517A1, “Phenyl derivatives and their use in the treatment of thromboembolic disorders or tumours” (priority 2001, published 2004)
Structures can show the parent of a compound that is named as a salt.

Experiments:
factor Xa = factor Xa (Homo sapiens, UniProt P00742); experiment: Inhibition of factor Xa; format: biochemical
Text: The inhibition of factor Xa by the compounds according to the invention and the measurement of the anticoagulant and antithrombotic activity can be determined by conventional in-vitro or in-vivo methods. A suitable method is described, for example, by J. Hauptmann et al. in Thrombosis and Haemostasis 1990, 63, 220-223.
The inhibition of factor Xa can be measured, for example, by the method of T. Hara et al. in Thromb. Haemostas. 1994, 71, 314-319.

factor VIIa = biological target: T1, factor VIIa (Homo sapiens, UniProt P08709); experiment: Inhibition of factor VIIa; format: biochemical
T1 sequence (P08709 213-466 limits assumed): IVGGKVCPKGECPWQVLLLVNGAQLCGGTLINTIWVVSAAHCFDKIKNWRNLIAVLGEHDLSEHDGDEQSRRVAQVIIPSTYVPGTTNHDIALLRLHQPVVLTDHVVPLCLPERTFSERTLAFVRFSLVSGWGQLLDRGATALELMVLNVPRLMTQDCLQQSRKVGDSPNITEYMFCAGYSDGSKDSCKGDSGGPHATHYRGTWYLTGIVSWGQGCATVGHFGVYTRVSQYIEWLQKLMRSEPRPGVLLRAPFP
T1 sequence (P08709 61-212 partner limits assumed): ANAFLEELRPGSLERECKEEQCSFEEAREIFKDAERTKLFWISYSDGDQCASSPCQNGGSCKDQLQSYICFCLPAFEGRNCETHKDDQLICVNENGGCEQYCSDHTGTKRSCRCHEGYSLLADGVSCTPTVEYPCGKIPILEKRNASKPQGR
Text: Coagulation factor VIIa initiates the extrinsic part of the coagulation cascade after binding to tissue factor and contributes to the activation of factor X to give factor Xa. Inhibition of factor VIIa thus prevents the formation of factor Xa and thus subsequent thrombin formation. The inhibition of factor VIIa by the compounds according to the invention and the measurement of the anticoagulant and antithrombotic activity can be determined by conventional in-vitro or in-vivo methods. A conventional method for the measurement of the inhibition of factor VIIa is described, for example, by H. F. Ronning et al. in Thrombosis Research 1996, 84, 73-81.

Chain of factor Xa (P00742 235-488 limits assumed): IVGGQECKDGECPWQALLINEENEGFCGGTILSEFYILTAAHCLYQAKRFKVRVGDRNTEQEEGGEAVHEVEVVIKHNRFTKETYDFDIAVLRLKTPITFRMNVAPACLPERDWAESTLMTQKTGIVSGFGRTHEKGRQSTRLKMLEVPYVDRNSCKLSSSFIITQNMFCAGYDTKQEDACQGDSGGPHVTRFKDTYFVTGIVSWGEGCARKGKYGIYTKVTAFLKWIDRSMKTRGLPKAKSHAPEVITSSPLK
Chain of factor Xa (P00742 41-179 partner limits assumed): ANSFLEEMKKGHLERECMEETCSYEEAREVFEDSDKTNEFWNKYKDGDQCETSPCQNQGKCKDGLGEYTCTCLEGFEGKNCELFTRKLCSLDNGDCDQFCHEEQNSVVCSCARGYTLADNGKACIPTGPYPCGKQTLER

IC50 (factor Xa) | IC50 (factor VIIa) | Compound
140 nM | 550 nM | CC(C)(C)NS(=O)(=O)c1ccccc1-c1ccc(NC(C(=O)Nc2cccc(C(=N)N)c2)c2ccccc2)cc1 (stereo not drawn) [Example 5.5, N-(3-amidinophenyl)-2-(2′-tert-butylaminosulfonylbiphenyl-4-amino)-2-phenylacetamide]
20 nM | 13 nM | N=C(N)c1cccc(NC(=O)C(Nc2ccc(-c3ccccc3S(N)(=O)=O)cc2)c2ccccc2)c1 (stereo not drawn) [Example 5.6, N-(3-amidinophenyl)-2-(2′-aminosulfonylbiphenyl-4-amino)-2-phenylacetamide, trifluoroacetate]

Compound | IC50 (factor Xa) | IC50 (factor VIIa)
CS(=O)(=O)c1ccccc1-c1ccc(OC(C(=O)Nc2cccc(C(=N)N)c2)c2ccccc2)cc1 (stereo not drawn) [Example 1, N-(3-amidinophenyl)-2-(2′-methanesulfonylbiphenyl-4-oxyl)-2-phenylacetamide] | 110 nM | 46 nM
